# Measured values: ChEMBL document CHEMBL4265913, “Role of p53 circuitry in tumorigenesis: A brief review” (Eur J Med Chem, 2018)
# Key:
# [1] = system: SK-N-SH; test: Antiproliferative activity against human SK-N-SH cells after 72 hrs by XTT assay; format: functional, cell-based
# [2] = Antiproliferative activity against human LAN5 cells after 72 hrs by XTT assay; format: functional, cell-based; conditions: LA-N-5, 72 h
# [3] = system: IMR-5; test: Antiproliferative activity against human IMR5 cells after 72 hrs by XTT assay; format: functional, cell-based; conditions: IMR-5, 72 h
# [4] = system: IMR-32; test: Antiproliferative activity against human IMR32 cells after 72 hrs by XTT assay; format: functional, cell-based; conditions: IMR-32, 72 h
# [5] = system: SH-SY5Y; test: Antiproliferative activity against human SH-SY5Y cells after 72 hrs by XTT assay; format: functional, cell-based
# [6] = system: U2OS; test: Antiproliferative activity against human U2OS cells after 72 hrs by MTT assay; format: functional, cell-based
# [7] = biological target: E3 ubiquitin-protein ligase Mdm2 (Homo sapiens, UniProt Q00987); test: Binding affinity to recombinant human MDM2 (1 to 118 residues) expressed in Escherichia coli BL21 (DE3) assessed as reduction in tryptophan fluorescence by microscale thermophoresis method
# [8] = system: PC-3; test: Growth inhibition of human PC3 cells harboring p53 deletion mutant after 4 days by WST8 assay; format: functional, cell-based; conditions: PC-3, 96 h
# Sequence of E3 ubiquitin-protein ligase Mdm2 (Q00987 whole entry, the tested form may be a part): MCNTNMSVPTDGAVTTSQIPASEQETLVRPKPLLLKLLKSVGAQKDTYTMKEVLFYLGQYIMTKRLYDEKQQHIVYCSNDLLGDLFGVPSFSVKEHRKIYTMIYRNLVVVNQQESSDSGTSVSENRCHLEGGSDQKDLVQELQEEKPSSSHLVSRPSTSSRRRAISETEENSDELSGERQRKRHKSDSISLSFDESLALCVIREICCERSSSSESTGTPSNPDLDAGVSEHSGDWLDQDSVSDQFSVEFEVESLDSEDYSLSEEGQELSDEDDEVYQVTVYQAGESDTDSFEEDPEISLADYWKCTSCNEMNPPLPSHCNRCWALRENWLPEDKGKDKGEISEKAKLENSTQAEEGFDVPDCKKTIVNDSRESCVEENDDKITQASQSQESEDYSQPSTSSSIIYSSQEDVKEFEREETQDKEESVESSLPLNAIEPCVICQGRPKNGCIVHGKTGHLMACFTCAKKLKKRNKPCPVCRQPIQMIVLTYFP
structure (smiles),measurement,setting,value
CC1(C)CCC2(CC1)N[C@H](C(=O)N[C@H]1CC[C@H](C(N)=O)OC1)[C@@H](c1ccnc(Cl)c1F)[C@@]21C(=O)Nc2cc(Cl)ccc21,IC50,[1],21.9 nM
same,IC50,[2],44.1 nM
same,IC50,[3],25.7 nM
same,IC50,[4],52.6 nM
same,IC50,[5],17.7 nM
Clc1ccc(C2N=C(c3ccccc3)c3cc(Cl)ccc3-n3cnnc32)cc1 (stereo not drawn),IC50,[6],4170 nM
CN1C(=O)C(Cc2ccc(Cl)cc2)=C(c2c[nH]c3cc(Cl)ccc23)[C@]1(O)Cc1ccc(Cl)cc1,Kd,[7],500 nM
CN(C)C(=O)[C@@H]1N[C@H](CC(C)(C)C)[C@]2(C(=O)Nc3cc(Cl)ccc32)[C@H]1c1cccc(Cl)c1,IC50,[8],22500 nM
